From ChEMBL document CHEMBL1933032, “Synthesis and evaluation of 4-alkoxy-[1'-cyclobutyl-spiro(3,4-dihydrobenzopyran-2,4'-piperidine)] analogues as histamine-3 receptor antagonists” (Bioorg Med Chem Lett, 2012)

Experiments:
[1] = biological target: Histamine H3 receptor (Homo sapiens, UniProt Q9Y5N1); assay: Binding affinity to human histamine H3 receptor
[2] = biological target: Histamine H3 receptor (Rattus norvegicus, UniProt Q9QYN8); assay: Binding affinity to rat histamine H3 receptor
[3] = Half life in human liver microsomes; type: ADME, Microsome
[4] = biological target: Histamine H4 receptor (Homo sapiens, UniProt Q9H3N8); assay: Binding affinity to human histamine H4 receptor
Sequence of Histamine H4 receptor (Q9H3N8 whole entry): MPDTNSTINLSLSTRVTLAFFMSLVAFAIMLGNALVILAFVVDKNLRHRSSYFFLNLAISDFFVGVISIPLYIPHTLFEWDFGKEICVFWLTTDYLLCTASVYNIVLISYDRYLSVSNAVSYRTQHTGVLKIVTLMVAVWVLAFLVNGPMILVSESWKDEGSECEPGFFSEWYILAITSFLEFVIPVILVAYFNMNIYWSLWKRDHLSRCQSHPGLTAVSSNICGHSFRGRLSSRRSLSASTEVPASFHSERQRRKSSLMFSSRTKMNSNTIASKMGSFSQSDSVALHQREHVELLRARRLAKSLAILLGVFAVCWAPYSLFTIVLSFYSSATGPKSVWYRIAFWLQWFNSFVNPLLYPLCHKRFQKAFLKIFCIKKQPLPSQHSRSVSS

[5] = biological target: Histamine H2 receptor (Homo sapiens, UniProt P25021); assay: Binding affinity to human histamine H2 receptor
Sequence of Histamine H2 receptor (P25021 whole entry): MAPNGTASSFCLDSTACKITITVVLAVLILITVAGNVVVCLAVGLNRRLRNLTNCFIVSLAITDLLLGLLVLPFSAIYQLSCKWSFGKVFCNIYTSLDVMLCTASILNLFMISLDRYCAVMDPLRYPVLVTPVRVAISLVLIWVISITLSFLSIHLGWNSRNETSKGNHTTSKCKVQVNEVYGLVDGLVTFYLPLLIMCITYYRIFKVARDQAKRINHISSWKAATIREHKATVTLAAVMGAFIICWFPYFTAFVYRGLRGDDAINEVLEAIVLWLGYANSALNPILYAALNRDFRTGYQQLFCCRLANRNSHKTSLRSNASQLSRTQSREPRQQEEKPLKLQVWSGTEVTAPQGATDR

[6] = Clearance in rat at 1 mg/kg, iv; type: ADME, organism-based; parameters: dose 1 mg/kg, route intravenous; conditions: in vivo
[7] = Half life in monkey liver microsomes; type: ADME, Macaca mulatta, Microsome; conditions: rhesus monkey
[8] = Ratio drug uptake in brain to plasma of rat at 5 mg/kg, po measured after 6 hrs; type: ADME, organism-based; parameters: dose 5 mg/kg, route oral; conditions: read-out: BPR
[9] = Volume of distribution in rat at 1 mg/kg, iv; type: ADME, organism-based; parameters: dose 1 mg/kg, route intravenous; conditions: in vivo
[10] = biological target: Histamine H1 receptor (Homo sapiens, UniProt P35367); assay: Binding affinity to human histamine H1 receptor
Sequence of Histamine H1 receptor (P35367 whole entry): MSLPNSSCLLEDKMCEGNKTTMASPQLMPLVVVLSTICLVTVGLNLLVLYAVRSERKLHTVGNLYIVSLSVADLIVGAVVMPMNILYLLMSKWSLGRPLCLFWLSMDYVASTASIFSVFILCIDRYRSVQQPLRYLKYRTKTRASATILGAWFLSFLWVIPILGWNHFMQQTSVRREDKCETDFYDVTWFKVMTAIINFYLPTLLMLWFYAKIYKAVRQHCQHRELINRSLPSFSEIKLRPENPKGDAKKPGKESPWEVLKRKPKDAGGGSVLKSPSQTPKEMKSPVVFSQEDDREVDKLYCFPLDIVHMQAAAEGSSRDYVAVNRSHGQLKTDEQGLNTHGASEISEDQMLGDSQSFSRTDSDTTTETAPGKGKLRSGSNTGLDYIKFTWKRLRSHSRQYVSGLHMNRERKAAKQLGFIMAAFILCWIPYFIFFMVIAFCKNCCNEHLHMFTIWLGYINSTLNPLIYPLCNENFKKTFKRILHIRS

[11] = Cmax in rat at 5 mg/kg, po; type: ADME, organism-based; parameters: dose 5 mg/kg, route oral; conditions: in vivo
[12] = Oral bioavailability in rat at 5 mg/kg; type: ADME, organism-based; conditions: in vivo
[13] = Half life in rat liver microsomes; type: ADME, Microsome
[14] = Half life in rat at 1 mg/kg, iv; type: ADME, organism-based; parameters: dose 1 mg/kg, route intravenous; conditions: in vivo
[15] = Half life in mouse liver microsomes; type: ADME, Microsome
[16] = biological target: Cytochrome P450 2D6 (Homo sapiens, UniProt P10635); assay: Inhibition of CYP2D6; type: ADME
Sequence of Cytochrome P450 2D6 (P10635 whole entry): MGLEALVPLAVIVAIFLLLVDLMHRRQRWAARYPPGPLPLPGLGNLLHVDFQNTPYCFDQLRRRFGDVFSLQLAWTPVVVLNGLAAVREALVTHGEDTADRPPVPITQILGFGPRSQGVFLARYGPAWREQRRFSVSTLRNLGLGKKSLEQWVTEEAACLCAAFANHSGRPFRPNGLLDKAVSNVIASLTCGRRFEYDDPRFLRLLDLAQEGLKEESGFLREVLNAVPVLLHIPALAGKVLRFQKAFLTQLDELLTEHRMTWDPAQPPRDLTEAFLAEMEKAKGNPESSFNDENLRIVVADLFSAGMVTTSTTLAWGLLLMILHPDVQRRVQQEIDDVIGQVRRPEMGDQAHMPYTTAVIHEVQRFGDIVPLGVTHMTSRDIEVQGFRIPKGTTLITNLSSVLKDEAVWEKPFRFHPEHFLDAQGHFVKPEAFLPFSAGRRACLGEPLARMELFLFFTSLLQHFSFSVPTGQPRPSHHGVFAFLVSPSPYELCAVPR

[17] = AUC (0 to t) in rat at 5 mg/kg, po; type: ADME, organism-based; parameters: dose 5 mg/kg, route oral; conditions: plasma
[18] = Plasma protein binding in rat; type: ADME, cell-free; conditions: read-out: PPB (converted)
[19] = biological target: T1, Alpha-1D adrenergic receptor (Homo sapiens) (UniProt P25100); assay: Inhibition of adrenergic Alpha-1D receptor at 10 uM
T1 sequence (whole entry): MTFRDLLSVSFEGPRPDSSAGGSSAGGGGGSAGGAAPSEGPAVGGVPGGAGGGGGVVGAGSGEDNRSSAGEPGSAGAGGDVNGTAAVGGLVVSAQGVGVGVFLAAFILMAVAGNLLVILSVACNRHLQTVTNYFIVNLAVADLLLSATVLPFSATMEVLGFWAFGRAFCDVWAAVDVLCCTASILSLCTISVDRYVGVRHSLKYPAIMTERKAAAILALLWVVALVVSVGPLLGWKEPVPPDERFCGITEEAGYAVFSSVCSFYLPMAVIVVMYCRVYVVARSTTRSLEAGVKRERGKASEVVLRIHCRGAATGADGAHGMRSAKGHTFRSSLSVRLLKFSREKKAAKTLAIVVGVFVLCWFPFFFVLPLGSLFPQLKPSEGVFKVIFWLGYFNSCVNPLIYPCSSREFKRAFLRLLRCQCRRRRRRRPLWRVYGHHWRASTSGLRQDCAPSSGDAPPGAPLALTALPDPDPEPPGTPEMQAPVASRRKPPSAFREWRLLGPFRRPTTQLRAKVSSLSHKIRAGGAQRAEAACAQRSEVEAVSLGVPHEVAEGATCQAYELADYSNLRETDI

[20] = Inhibition of nACh receptor at 10 uM
[21] = biological target: T2, Alpha-2C adrenergic receptor (Homo sapiens) (UniProt P18825); assay: Inhibition of adrenergic Alpha-2C receptor at 10 uM
T2 sequence (whole entry): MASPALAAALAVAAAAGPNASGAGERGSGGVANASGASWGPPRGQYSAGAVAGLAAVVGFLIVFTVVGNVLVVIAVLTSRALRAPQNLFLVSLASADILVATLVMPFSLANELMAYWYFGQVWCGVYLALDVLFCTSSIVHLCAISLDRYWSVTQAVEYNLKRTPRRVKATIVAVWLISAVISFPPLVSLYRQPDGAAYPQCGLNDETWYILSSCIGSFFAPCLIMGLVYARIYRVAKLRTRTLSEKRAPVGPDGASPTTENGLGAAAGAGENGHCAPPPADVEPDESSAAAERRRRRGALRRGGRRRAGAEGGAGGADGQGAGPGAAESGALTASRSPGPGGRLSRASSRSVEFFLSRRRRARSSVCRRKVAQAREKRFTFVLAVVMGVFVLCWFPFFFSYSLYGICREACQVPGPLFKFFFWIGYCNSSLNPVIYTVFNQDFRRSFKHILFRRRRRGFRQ

[22] = Fraction unbound in rat brain homogenate; type: ADME, tissue-based
[23] = test system: Rattus norvegicus; assay: Inhibition of RAMH-induced dipsogenia in rat at 3 mg/kg, po; type: functional
[24] = Plasma protein binding in human; type: ADME, cell-free; conditions: read-out: PPB (converted)
[25] = biological target: Cytochrome P450 3A4 (Homo sapiens, UniProt P08684); assay: Inhibition of CYP3A4; type: ADME
Sequence of Cytochrome P450 3A4 (P08684 whole entry): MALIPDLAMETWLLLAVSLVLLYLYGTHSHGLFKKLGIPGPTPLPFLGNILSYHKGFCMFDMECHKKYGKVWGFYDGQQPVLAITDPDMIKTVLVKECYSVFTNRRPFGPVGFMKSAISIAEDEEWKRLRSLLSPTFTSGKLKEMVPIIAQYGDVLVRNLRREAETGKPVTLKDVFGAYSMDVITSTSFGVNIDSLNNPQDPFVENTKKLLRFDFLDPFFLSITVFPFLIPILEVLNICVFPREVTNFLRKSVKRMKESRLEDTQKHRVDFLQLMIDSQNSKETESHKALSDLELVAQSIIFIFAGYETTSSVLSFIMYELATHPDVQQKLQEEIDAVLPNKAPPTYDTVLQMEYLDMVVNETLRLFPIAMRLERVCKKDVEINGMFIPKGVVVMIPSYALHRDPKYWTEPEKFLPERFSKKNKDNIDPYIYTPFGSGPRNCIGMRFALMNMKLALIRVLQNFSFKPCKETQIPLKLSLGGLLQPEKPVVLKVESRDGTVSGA

[26] = biological target: Cytochrome P450 2C9 (Homo sapiens, UniProt P11712); assay: Inhibition of CYP2C9; type: ADME
Sequence of Cytochrome P450 2C9 (P11712 whole entry): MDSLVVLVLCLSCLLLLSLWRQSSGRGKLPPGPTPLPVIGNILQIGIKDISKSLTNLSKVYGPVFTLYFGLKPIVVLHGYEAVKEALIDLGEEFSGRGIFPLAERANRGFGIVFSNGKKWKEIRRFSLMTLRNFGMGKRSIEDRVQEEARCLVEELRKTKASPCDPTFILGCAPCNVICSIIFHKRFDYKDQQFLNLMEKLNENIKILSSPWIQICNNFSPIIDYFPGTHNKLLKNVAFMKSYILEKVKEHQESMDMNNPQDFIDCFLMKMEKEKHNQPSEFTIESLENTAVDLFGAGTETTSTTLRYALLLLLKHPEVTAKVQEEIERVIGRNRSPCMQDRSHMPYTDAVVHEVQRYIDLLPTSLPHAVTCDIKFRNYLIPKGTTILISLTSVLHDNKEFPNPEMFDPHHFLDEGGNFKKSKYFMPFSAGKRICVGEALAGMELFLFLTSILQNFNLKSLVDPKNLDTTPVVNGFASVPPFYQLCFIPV

[27] = biological target: T3, Cytochrome P450 1A2 (Homo sapiens, UniProt P05177); assay: Inhibition of CYP1A2; type: ADME
T3 sequence (P05177 whole entry): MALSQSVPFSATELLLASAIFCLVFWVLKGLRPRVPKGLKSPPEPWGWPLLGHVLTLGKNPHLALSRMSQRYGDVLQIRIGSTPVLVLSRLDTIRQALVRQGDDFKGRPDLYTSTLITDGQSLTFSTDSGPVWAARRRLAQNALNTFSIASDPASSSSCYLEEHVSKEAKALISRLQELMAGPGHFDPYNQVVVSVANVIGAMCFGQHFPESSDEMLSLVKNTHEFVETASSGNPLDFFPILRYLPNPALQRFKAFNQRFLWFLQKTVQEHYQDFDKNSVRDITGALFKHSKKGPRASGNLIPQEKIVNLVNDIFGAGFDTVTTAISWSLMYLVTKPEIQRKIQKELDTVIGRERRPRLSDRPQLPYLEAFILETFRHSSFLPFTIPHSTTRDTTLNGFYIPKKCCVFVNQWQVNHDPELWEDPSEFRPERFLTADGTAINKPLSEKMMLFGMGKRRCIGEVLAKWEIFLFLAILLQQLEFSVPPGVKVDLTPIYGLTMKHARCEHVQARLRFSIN

[28] = biological target: Cytochrome P450 2C19 (Homo sapiens, UniProt P33261); assay: Inhibition of CYP2C19; type: ADME
Sequence of Cytochrome P450 2C19 (P33261 whole entry): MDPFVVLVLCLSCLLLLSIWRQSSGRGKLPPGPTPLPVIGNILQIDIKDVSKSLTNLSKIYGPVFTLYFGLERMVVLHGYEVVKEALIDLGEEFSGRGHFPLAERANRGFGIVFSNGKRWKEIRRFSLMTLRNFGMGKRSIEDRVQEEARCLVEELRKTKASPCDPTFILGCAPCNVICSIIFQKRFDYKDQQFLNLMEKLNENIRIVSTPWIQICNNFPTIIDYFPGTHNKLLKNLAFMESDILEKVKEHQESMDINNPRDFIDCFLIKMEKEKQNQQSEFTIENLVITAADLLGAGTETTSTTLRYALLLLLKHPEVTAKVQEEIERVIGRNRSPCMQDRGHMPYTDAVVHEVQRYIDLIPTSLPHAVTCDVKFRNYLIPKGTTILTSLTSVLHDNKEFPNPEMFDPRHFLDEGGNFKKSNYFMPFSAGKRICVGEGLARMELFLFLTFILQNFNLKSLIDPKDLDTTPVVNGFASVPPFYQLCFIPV

Sequence of Histamine H3 receptor (Homo sapiens, UniProt Q9Y5N1) (Q9Y5N1 whole entry): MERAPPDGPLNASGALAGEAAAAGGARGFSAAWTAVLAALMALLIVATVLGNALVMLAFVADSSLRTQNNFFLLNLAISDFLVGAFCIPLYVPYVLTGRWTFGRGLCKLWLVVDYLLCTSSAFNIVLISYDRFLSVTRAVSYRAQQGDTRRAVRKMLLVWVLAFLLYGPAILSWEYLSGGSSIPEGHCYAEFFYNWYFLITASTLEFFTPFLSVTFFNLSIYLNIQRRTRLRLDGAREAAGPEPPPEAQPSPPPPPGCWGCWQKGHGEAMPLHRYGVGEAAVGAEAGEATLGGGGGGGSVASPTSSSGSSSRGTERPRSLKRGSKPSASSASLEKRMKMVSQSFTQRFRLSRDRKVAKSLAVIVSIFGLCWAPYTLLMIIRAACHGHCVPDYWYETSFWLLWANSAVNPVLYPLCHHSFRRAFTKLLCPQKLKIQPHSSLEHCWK
Sequence of Histamine H3 receptor (Rattus norvegicus, UniProt Q9QYN8) (Q9QYN8 whole entry): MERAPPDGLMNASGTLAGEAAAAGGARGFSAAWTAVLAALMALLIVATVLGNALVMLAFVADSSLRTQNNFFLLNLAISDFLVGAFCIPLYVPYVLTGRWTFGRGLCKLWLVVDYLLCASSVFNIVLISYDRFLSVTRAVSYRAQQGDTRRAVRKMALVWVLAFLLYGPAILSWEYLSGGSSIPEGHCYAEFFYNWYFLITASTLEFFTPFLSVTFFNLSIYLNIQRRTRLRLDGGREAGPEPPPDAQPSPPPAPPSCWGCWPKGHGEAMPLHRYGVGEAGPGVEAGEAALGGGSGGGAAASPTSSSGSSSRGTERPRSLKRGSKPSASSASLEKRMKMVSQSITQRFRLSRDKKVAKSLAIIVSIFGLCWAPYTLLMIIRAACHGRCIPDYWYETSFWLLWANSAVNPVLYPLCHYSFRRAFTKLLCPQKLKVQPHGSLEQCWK

CS(=O)(=O)CCOc1ccc2c(c1)CCC1(CCN(C3CCC3)CC1)O2
Ki [1]: 0.039 µM
Ki [2]: 0.157 µM

CSCCOc1ccc2c(c1)CCC1(CCN(C3CCC3)CC1)O2
Ki [1]: 0.038 µM
Ki [2]: 0.086 µM

CC[C@@H](O)COc1ccc2c(c1)CCC1(CCN(C3CCC3)CC1)O2
Ki [1]: 0.015 µM
Ki [2]: 0.086 µM

O=S1(=O)CCC(COc2ccc3c(c2)CCC2(CCN(C4CCC4)CC2)O3)CC1
half-life [3]: > 40 min
Ki [4]: > 10 µM
Ki [5]: > 10 µM
clearance [6]: 23 mL/min/kg
Ki [1]: 0.004 µM
half-life [7]: > 40 min
Kp at 6 h [8]: 0.73
Vd [9]: 3.6 L/kg
Ki [10]: > 10 µM
Cmax [11]: 157 ng/mL
bioavailability [12]: 22%
half-life [13]: > 40 min
half-life [14]: 114 min
half-life [15]: > 40 min
Ki [2]: 0.009 µM
IC50 [16]: 11 µM
AUC(0-t) [17]: 713 ng·h/mL

c1cc2c(cc1O[C@H]1CCOC1)CCC1(CCN(C3CCC3)CC1)O2
Ki [1]: 0.015 µM
Ki [2]: 0.039 µM

c1cc2c(cc1OCC1CCSCC1)CCC1(CCN(C3CCC3)CC1)O2
Ki [1]: 0.012 µM
Ki [2]: 0.048 µM

c1cc2c(cc1OCC1CCCO1)CCC1(CCN(C3CCC3)CC1)O2 (stereo not drawn)
Ki [1]: 0.016 µM
Ki [2]: 0.05 µM

OCCOc1ccc2c(c1)CCC1(CCN(C3CCC3)CC1)O2
Ki [1]: 0.126 µM
Ki [2]: 0.368 µM

CC[C@H](O)COc1ccc2c(c1)CCC1(CCN(C3CCC3)CC1)O2
Ki [1]: 0.026 µM
Ki [2]: 0.112 µM

c1cc2c(cc1OCC1CCOC1)CCC1(CCN(C3CCC3)CC1)O2 (stereo not drawn)
Ki [1]: 0.018 µM
Ki [2]: 0.049 µM

O=S1(=O)CCC(Oc2ccc3c(c2)CCC2(CCN(C4CCC4)CC2)O3)C1 (stereo not drawn)
Ki [1]: 0.023 µM
Ki [2]: 0.044 µM

O=S1(=O)CCC(Oc2ccc3c(c2)CCC2(CCN(C4CCC4)CC2)O3)CC1
fraction unbound [18]: 0.27
half-life [3]: > 40 min
inhibition [19]: 50%
inhibition [20]: 63%
Ki [4]: > 10 µM
Ki [5]: > 10 µM
clearance [6]: 19 mL/min/kg
inhibition [21]: 78%
Ki [1]: 0.007 µM
half-life [7]: > 40 min
Kp at 6 h [8]: 1
Vd [9]: 2.8 L/kg
fraction unbound [22]: 0.27
Ki [10]: > 10 µM
Cmax [11]: 460 ng/mL
bioavailability [12]: 48%
half-life [13]: > 40 min
half-life [14]: 102 min
inhibition in vivo at 3 mg/kg [23]: 61%
fraction unbound [24]: 0.23
half-life [15]: > 40 min
Ki [2]: 0.024 µM
IC50 [16]: 6.6 µM
AUC(0-t) [17]: 1790 ng·h/mL

c1cc2c(cc1OC1CCOCC1)CCC1(CCN(C3CCC3)CC1)O2
Ki [1]: 0.015 µM
Ki [2]: 0.042 µM

c1cc2c(cc1OC1CCSCC1)CCC1(CCN(C3CCC3)CC1)O2
Ki [1]: 0.023 µM
Ki [2]: 0.062 µM

c1cc2c(cc1O[C@@H]1CCOC1)CCC1(CCN(C3CCC3)CC1)O2
Ki [1]: 0.027 µM
Ki [2]: 0.119 µM

COCCOc1ccc2c(c1)CCC1(CCN(C3CCC3)CC1)O2
Ki [1]: 0.042 µM
Ki [2]: 0.091 µM

c1cc2c(cc1OC1CCSC1)CCC1(CCN(C3CCC3)CC1)O2 (stereo not drawn)
Ki [1]: 0.017 µM
Ki [2]: 0.042 µM

CS(=O)(=O)CCCOc1ccc2c(c1)CCC1(CCN(C3CCC3)CC1)O2
half-life [3]: > 40 min
Ki [4]: > 10 µM
Ki [5]: > 10 µM
clearance [6]: 16 mL/min/kg
IC50 [25]: > 30 µM
Ki [1]: 0.01 µM
half-life [7]: > 40 min
Kp at 6 h [8]: 0.73
Vd [9]: 1.2 L/kg
Ki [10]: > 10 µM
Cmax [11]: 142 ng/mL
bioavailability [12]: 13%
half-life [13]: > 40 min
half-life [14]: 54 min
IC50 [26]: > 30 µM
half-life [15]: > 40 min
Ki [2]: 0.041 µM
IC50 [27]: > 30 µM
IC50 [16]: > 30 µM
AUC(0-t) [17]: 586 ng·h/mL
IC50 [28]: > 30 µM

CSCCCOc1ccc2c(c1)CCC1(CCN(C3CCC3)CC1)O2
Ki [1]: 0.015 µM
Ki [2]: 0.064 µM

CC(O)COc1ccc2c(c1)CCC1(CCN(C3CCC3)CC1)O2 (stereo not drawn)
Ki [1]: 0.025 µM
Ki [2]: 0.099 µM

CC(C)(O)COc1ccc2c(c1)CCC1(CCN(C3CCC3)CC1)O2
Ki [1]: 0.018 µM
Ki [2]: 0.074 µM
